Results on two compounds are retold here after patent US20040009568A1, “Catalytic domains of the human hepatocyte growth factor receptor tyrosine kinase, and materials and methods for identification of inhibitors thereof” (priority 2001, published 2004).

Common to all, as to format: biochemical
The target in one test is T1, pHGFR (Homo sapiens, UniProt P08581).
T1 construct: The cDNA corresponding to residues 1051-1349 of the HGFR kinase catalytic domain (HGFRkd) was cloned into a pFastBac plasmid; added N-terminal methionine (start codon of the NcoI site) (N); made in house; host or cells: Sf9 insect cells, recombinant baculovirus; then autophosphorylated in vitro with MgATP
T1 sequence (P08581 1051-1349): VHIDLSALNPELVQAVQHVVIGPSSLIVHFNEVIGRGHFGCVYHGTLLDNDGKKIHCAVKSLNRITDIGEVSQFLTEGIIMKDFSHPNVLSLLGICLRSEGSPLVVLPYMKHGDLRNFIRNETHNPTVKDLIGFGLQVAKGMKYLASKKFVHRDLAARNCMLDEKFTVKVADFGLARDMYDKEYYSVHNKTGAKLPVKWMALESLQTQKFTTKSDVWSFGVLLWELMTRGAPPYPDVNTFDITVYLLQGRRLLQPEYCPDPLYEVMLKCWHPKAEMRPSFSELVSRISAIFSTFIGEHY
Kind of test: Radioactive glass fiber filterplate assay (32P transfer to dephosphorylated α-casein). The protocol: (§1) The kinetic consequences of the autophosphorylation were investigated. HGFR and pHGFR activities were evaluated in two distinct and complementing assay formats. […] A coupled, enzymatic assay format (CE format) was used to measure ADP production. HGFR-catalyzed production of ADP from ATP that accompanied phosphate transfer to the random copolymer poly(Glu4Tyr) was coupled to the oxidation of NADH through the sequential activities of pyruvate kinase (PK) and lactate dehydrogenase (LDH). NADH conversion to NAD^+ was monitored spectrophotometrically by the decrease in absorbance at 340 nm (ε=6.22 cm^−1 mM^−1). A second assay format was used to measure the production of [^32P]-labeled phospho-protein (dephosphorylated α-casein). Dephosphorylated α-casein is the substrate for HGFR […] in a glass fiber filterplate assay format. […]
(§2) Inhibition of HGFR and pHGFR were monitored in two distinct assay formats to insure valid results. The coupled, enzymatic format (CE) was a continuous assay that measured ADP production through the sequential action of two standard coupling enzymes (pyruvate kinase and lactate dehydrogenase). The radioactive assay format was a discontinuous assay that measured phospho-protein production directly. […]

The target in the next test is T2, unphosphorylated HGFR (Homo sapiens, UniProt P08581).
T2 construct: The cDNA corresponding to residues 1051-1349 of the HGFR kinase catalytic domain (HGFRkd) was cloned into a pFastBac plasmid; added N-terminal methionine (start codon of the NcoI site) (N); made in house; host or cells: Sf9 insect cells, recombinant baculovirus (pFastBac-NcoI)
T2 sequence (P08581 1051-1349): as above
Kind of test: Coupled enzymatic (PK/LDH) kinase assay, unphosphorylated HGFR. The protocol: (§3) A coupled enzymatic assay format was used to measure both HGFR and phospho-HGFR(PHGFR) activities. The kinase-catalyzed production of ADP from ATP that accompanies phosphate transfer to the random copolymer poly(Glu4Tyr) or peptide substrate was coupled to the oxidation of NADH through the activities of pyruvate kinase (PK) and lactate dehydrogenase (LDH). NADH conversion to NAD^+ was monitored by the decrease in absorbance at 340 nm (ε=6.22 cm^−1 mM^−1) using a Beckman DU650 spectrophotometer. A typical reaction solution contained 1 mM phosphoenolpyruvate, 0.24 mM NADH, 40 mM MgCl2, 5 mM DTT, poly(Glu4Tyr), ATP, 15 units/mL PK, 15 units/mL LDH in 100 mM HEPES, pH 7.5. ATP was varied from 0.5 to 2000 μM and poly(Glu4Tyr) was varied from 0.5 to 20 mg/mL. In addition, Met2 peptide (0-4 mM) could be used instead of poly(Glu4Tyr). Assays were initiated with the addition of 12 nM phosphorylated HGFR or 125 nM unphosphorylated HGFR. Inhibition studies were performed as described above with following exceptions: 0.075 mM ATP (PHGFR) and 0.375 mM ATP (HGFR). Data was fit to the equation for competitive inhibition by the method of nonlinear least squares (KaleidaGraph).
The kinetic consequences of the autophosphorylation were investigated. HGFR and pHGFR activities were evaluated in two distinct and complementing assay formats. […] NADH conversion to NAD^+ was monitored spectrophotometrically by the decrease in absorbance at 340 nm (ε=6.22 cm^−1 mM^−1). […]
as §2
(§4) The coupled enzymatic analysis of HGFR processing of ATP and poly(Glu4Tyr) were measured at 37° C. Variable substrate concentration was measured at a fixed saturating concentration of the other substrate.

The target of test [1] is T3, phosphorylated HGFR (pHGFR) (Homo sapiens, UniProt P08581).
T3 construct: The cDNA corresponding to residues 1051-1349 of the HGFR kinase catalytic domain (HGFRkd) was cloned into a pFastBac plasmid; added N-terminal methionine (start codon of the NcoI site) (N); made in house; host or cells: Sf9 insect cells, recombinant baculovirus; then autophosphorylated in vitro with MgATP
T3 sequence (P08581 1051-1349): as above
Kind of test: Coupled enzymatic (PK/LDH) kinase assay, phospho-HGFR. As to the method: as §3, §1, §2, §4

[2] abbreviates: coupled enzymatic analysis, 37° C., other substrate fixed saturating.

As usually defined, the Km is the substrate concentration at which the rate is half of its maximum.

As to `O=C1Nc2ccc3ncsc3c2/C1=C/Nc1ccc(S(=O)(=O)NCCOCCO)cc1` [Compound 1, 4-[[(Z)-(6,7-dihydro-7-oxo-8H-pyrrolo[2,3-g]benzothiazol-8-ylidene)methyl]amino]-N-[2-(2-hydroxyethoxy)ethyl]-(9CI)], the Ki on pHGFR (radioactive filterplate format, 27.5 nM pHGFR, 0.075 mM ATP, RT, 30 min, read-out: inhibition (pHGFR/radioactive format)) was determined as 128 ± 17 nM; at unphosphorylated HGFR (coupled enzymatic format, 0.375 mM ATP, data fit to equation for competitive inhibition, read-out: inhibition (HGFR/CE format)), 500 ± 30 nM; in test [1] (coupled enzymatic format, 0.075 mM ATP, data fit to equation for competitive inhibition, read-out: inhibition (pHGFR/CE format)), 381 ± 19 nM. The “mechanism of pHGFR inhibition (double reciprocal analysis)” value in test [1] (CE assay, ATP 25-3200 μM, Compound 1 0-1200 nM, pHGFR 25 nM, Met2 peptide 0.5 mM) is listed as “ATP-competitive inhibitor”.

For `Nc1ncnc2c1ncn2[C@@H]1O[C@H](COP(=O)(O)OP(=O)([O-])OP(=O)([O-])O)[C@@H](O)[C@H]1O.[Mg+2]` [MgATP, ATP], the Michaelis constant (Km) at pHGFR (radioactive filtermate format, dephosphorylated α-casein phosphoacceptor, read-out: Km for ATP (radioactive filtermate format)) came out at 78.6 ± 12.1 µM; on unphosphorylated HGFR (setting [2]), 373 ± 61 µM; in test [1] (coupled enzymatic analysis, 37° C., other substrate fixed saturating, read-out: Km, Phospho-HGFR), 73.7 ± 2.8 µM. Also, the “kcat, Unphosphorylated HGFR” value at unphosphorylated HGFR (setting [2]) was 1.02 ± 0.013 s⁻¹. Also, in test [1] (setting [2]), the “kcat, Phospho-HGFR” value was determined as 31.3 ± 2.1 s⁻¹.
